Tests used:
[1] = system: HCV genotype 1b (Con1) replicon in HUH-7 cells; assay: HCV replicon luciferase reporter assay, genotype 1b; format: cell-based; settings: Hepatitis C virus, Huh-7, 72 h, HCV genotype 1b replicon luciferase, 3 days incubation, read-out: LE_1b (EC50, range)
Procedure, shortened: (§1)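 Replicon inhibition for both genotypes was measured as Renilla luciferase signal (EnduRen, 7.5 μM final, 2 h) after 3-day, 37° C exposure of replicon-bearing HUH-7 cells in 4% FCS DMEM, 0.5% DMSO. The 1b construct carries S1179I; the 1a H77 construct carries P1496L and S2204I. Twenty-point, 3-fold dilutions were fitted four-parametrically for EC50, and CC50 was taken from multiplexed Cell Titer-Blue.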

[2] = system: HCV genotype 1a (H77 strain) replicon in HUH-7 cells; assay: HCV replicon luciferase reporter assay, genotype 1a; format: cell-based; settings: Hepatitis C virus, Huh-7, 72 h, HCV genotype 1a replicon luciferase, 3 days incubation, read-out: LE_1a (EC50, range)
Procedure, shortened: as §1

SMILES	EC50 [1]	EC50 [2]
COc1ccc2c(O[C@@H]3C[C@H]4C(=O)N[C@]5(C(=O)NS(=O)(=O)C6CC6)C[C@H]5/C=C\CC[C@H](C)C[C@@H](C)[C@H](NC(=O)OC5C[C@@H]6C[C@@H]6C5)C(=O)N4C3)nc(-c3ccc(OC(C)C)cn3)cc2c1 (stereo partly drawn) [Compound 5208, (1R,3r,5S)-bicyclo[3.1.0]hexan-3-yl((2R,6S,7R,9S,13aS,14aR,16aS,Z)-14a-((cyclopropylsulfonyl)carbamoyl)-2-((3-(5-isopropoxypyridin-2-yl)-6-methoxyisoquinolin-1-yl)oxy)-7,9-dimethyl-5,16-dioxo-1,2,3,5,6,7,8,9,10,11,13a,14,14a,15,16,16a-hexadecahydrocyclopropa[e]pyrrolo[1,2-a][1,4]diazacyclopentadecin-6-yl)carbamate]	< 5.46 nM	< 5.46 nM
COc1ccc2c(O[C@@H]3C[C@H]4C(=O)N[C@]5(C(=O)NS(=O)(=O)C6CC6)C[C@H]5/C=C\CC[C@@H](C)C[C@@H](C)[C@H](NC(=O)OC5C[C@@H]6C[C@@H]6C5)C(=O)N4C3)nc(-c3ccc(OC(C)C)cn3)cc2c1 (stereo partly drawn) [Compound 5209, (1R,3r,5S)-bicyclo[3.1.0]hexan-3-yl((2R,6S,7R,9R,13aS,14aR,16aS,Z)-14a-((cyclopropylsulfonyl)carbamoyl)-2-((3-(5-isopropoxypyridin-2-yl)-6-methoxyisoquinolin-1-yl)oxy)-7,9-dimethyl-5,16-dioxo-1,2,3,5,6,7,8,9,10,11,13a,14,14a,15,16,16a-hexadecahydrocyclopropa[e]pyrrolo[1,2-a][1,4]diazacyclopentadecin-6-yl)carbamate]	< 5.46 nM	< 5.46 nM
COc1ccc2c(O[C@@H]3C[C@H]4C(=O)N[C@]5(C(=O)NS(=O)(=O)C6CC6)C[C@H]5/C=C\CC[C@H](C)C[C@@H](C)[C@H](NC(=O)NC(C)(C)C)C(=O)N4C3)nc(-c3ccc(OC(C)C)cn3)cc2c1 [Compound 5210, (2R,6S,7R,9S,13aS,14aR,16aS,Z)-6-(3-(tert-butyl)ureido)-N-(cyclopropylsulfonyl)-2-((3-(5-isopropoxypyridin-2-yl)-6-methoxyisoquinolin-1-yl)oxy)-7,9-dimethyl-5,16-dioxo-1,2,3,5,6,7,8,9,10,11,13a,14,14a,15,16,16a-hexadecahydrocyclopropa[e]pyrrolo[1,2-a][1,4]diazacyclopentadecine-14a-carboxamide]	< 5.46 nM	< 5.46 nM
COc1ccc2c(O[C@@H]3C[C@H]4C(=O)N[C@]5(C(=O)NS(=O)(=O)C6CC6)C[C@H]5/C=C\CC[C@@H](C)C[C@@H](C)[C@H](NC(=O)NC(C)(C)C)C(=O)N4C3)nc(-c3ccc(OC(C)C)cn3)cc2c1 [Compound 5211, (2R,6S,7R,9R,13aS,14aR,16aS,Z)-6-(3-(tert-butyl)ureido)-N-(cyclopropylsulfonyl)-2-((3-(5-isopropoxypyridin-2-yl)-6-methoxyisoquinolin-1-yl)oxy)-7,9-dimethyl-5,16-dioxo-1,2,3,5,6,7,8,9,10,11,13a,14,14a,15,16,16a-hexadecahydrocyclopropa[e]pyrrolo[1,2-a][1,4]diazacyclopentadecine-14a-carboxamide]	< 5.46 nM	< 5.46 nM
COc1ccc2c(O[C@@H]3C[C@H]4C(=O)N[C@]5(C(=O)NS(=O)(=O)C6CC6)C[C@H]5/C=C\CC[C@H](C)C[C@@H](C)[C@H](NC(=O)OC(C)(C)C)C(=O)N4C3)nc(-c3ccc(OC(C)C)nc3)cc2c1 [Compound 5212, tert-butyl ((2R,6S,7R,9S,13aS,14aR,16aS,Z)-14a-((cyclopropylsulfonyl)carbamoyl)-2-((3-(6-isopropoxypyridin-3-yl)-6-methoxyisoquinolin-1-yl)oxy)-7,9-dimethyl-5,16-dioxo-1,2,3,5,6,7,8,9,10,11,13a,14,14a,15,16,16a-hexadecahydrocyclopropa[e]pyrrolo[1,2-a][1,4]diazacyclopentadecin-6-yl)carbamate]	< 5.46 nM	< 5.46 nM
COc1ccc2c(O[C@@H]3C[C@H]4C(=O)N[C@]5(C(=O)NS(=O)(=O)C6CC6)C[C@H]5/C=C\CC[C@@H](C)C[C@@H](C)[C@H](NC(=O)OC(C)(C)C)C(=O)N4C3)nc(-c3ccc(OC(C)C)nc3)cc2c1 [Compound 5213, tert-butyl ((2R,6S,7R,9R,13aS,14aR,16aS,Z)-14a-((cyclopropylsulfonyl)carbamoyl)-2-((3-(6-isopropoxypyridin-3-yl)-6-methoxyisoquinolin-1-yl)oxy)-7,9-dimethyl-5,16-dioxo-1,2,3,5,6,7,8,9,10,11,13a,14,14a,15,16,16a-hexadecahydrocyclopropa[e]pyrrolo[1,2-a][1,4]diazacyclopentadecin-6-yl)carbamate]	< 5.46 nM	< 5.46 nM
COc1ccc2c(O[C@@H]3C[C@H]4C(=O)N[C@]5(C(=O)NS(=O)(=O)C6CC6)C[C@H]5/C=C\CC[C@H](C)C[C@@H](C)[C@H](NC(=O)OC(C)(C)C(F)(F)F)C(=O)N4C3)nc(-c3ccc(OC(C)C)nc3)cc2c1 [Compound 5214, 1,1,1-trifluoro-2-methylpropan-2-yl((2R,6S,7R,9S,13aS,14aR,16aS,Z)-14a-((cyclopropylsulfonyl)carbamoyl)-2-((3-(6-isopropoxypyridin-3-yl)-6-methoxyisoquinolin-1-yl)oxy)-7,9-dimethyl-5,16-dioxo-1,2,3,5,6,7,8,9,10,11,13a,14,14a,15,16,16a-hexadecahydrocyclopropa[e]pyrrolo[1,2-a][1,4]diazacyclopentadecin-6-yl)carbamate]	< 5.46 nM	4.82 to 103 nM
COc1ccc2c(O[C@@H]3C[C@H]4C(=O)N[C@]5(C(=O)NS(=O)(=O)C6CC6)C[C@H]5/C=C\CC[C@@H](C)C[C@@H](C)[C@H](NC(=O)OC(C)(C)C(F)(F)F)C(=O)N4C3)nc(-c3ccc(OC(C)C)nc3)cc2c1 [Compound 5215, 1,1,1-trifluoro-2-methylpropan-2-yl((2R,6S,7R,9R,13aS,14aR,16aS,Z)-14a-((cyclopropylsulfonyl)carbamoyl)-2-((3-(6-isopropoxypyridin-3-yl)-6-methoxyisoquinolin-1-yl)oxy)-7,9-dimethyl-5,16-dioxo-1,2,3,5,6,7,8,9,10,11,13a,14,14a,15,16,16a-hexadecahydrocyclopropa[e]pyrrolo[1,2-a][1,4]diazacyclopentadecin-6-yl)carbamate]	< 5.46 nM	< 5.46 nM
[2H]C([2H])([2H])C(OC(=O)N[C@@H]1C(=O)N2C[C@H](Oc3nc(-c4ccc(OC(C)C)nc4)cc4cc(OC)ccc34)C[C@H]2C(=O)N[C@]2(C(=O)NS(=O)(=O)C3CC3)C[C@H]2/C=C\CC[C@H](C)C[C@H]1C)(C([2H])([2H])[2H])C(F)(F)F [Compound 5216, 1,1,1,3,3,3-hexadeutero-2-(trifluoromethyl)propan-2-yl((2R,6S,7R,9S,13aS,14aR,16aS,Z)-14a-((cyclopropylsulfonyl)carbamoyl)-2-((3-(6-isopropoxypyridin-3-yl)-6-methoxyisoquinolin-1-yl)oxy)-7,9-dimethyl-5,16-dioxo-1,2,3,5,6,7,8,9,10,11,13a,14,14a,15,16,16a-hexadecahydrocyclopropa[e]pyrrolo[1,2-a][1,4]diazacyclopentadecin-6-yl)carbamate]	< 5.46 nM	4.82 to 103 nM
[2H]C([2H])([2H])C(OC(=O)N[C@@H]1C(=O)N2C[C@H](Oc3nc(-c4ccc(OC(C)C)nc4)cc4cc(OC)ccc34)C[C@H]2C(=O)N[C@]2(C(=O)NS(=O)(=O)C3CC3)C[C@H]2/C=C\CC[C@@H](C)C[C@H]1C)(C([2H])([2H])[2H])C(F)(F)F [Compound 5217, 1,1,1,3,3,3-hexadeutero-2-(trifluoromethyl)propan-2-yl((2R,6S,7R,9R,13aS,14aR,16aS,Z)-14a-((cyclopropylsulfonyl)carbamoyl)-2-((3-(6-isopropoxypyridin-3-yl)-6-methoxyisoquinolin-1-yl)oxy)-7,9-dimethyl-5,16-dioxo-1,2,3,5,6,7,8,9,10,11,13a,14,14a,15,16,16a-hexadecahydrocyclopropa[e]pyrrolo[1,2-a][1,4]diazacyclopentadecin-6-yl)carbamate]	< 5.46 nM	< 5.46 nM
COc1ccc2c(O[C@@H]3C[C@H]4C(=O)N[C@]5(C(=O)NS(=O)(=O)C6CC6)C[C@H]5/C=C\CC[C@H](C)C[C@@H](C)[C@H](NC(=O)OC5C[C@@H]6C[C@@H]6C5)C(=O)N4C3)nc(-c3ccc(OC(C)C)nc3)cc2c1 (stereo partly drawn) [Compound 5218, (1R,3r,5S)-bicyclo[3.1.0]hexan-3-yl((2R,6S,7R,9S,13aS,14aR,16aS,Z)-14a-((cyclopropylsulfonyl)carbamoyl)-2-((3-(6-isopropoxypyridin-3-yl)-6-methoxyisoquinolin-1-yl)oxy)-7,9-dimethyl-5,16-dioxo-1,2,3,5,6,7,8,9,10,11,13a,14,14a,15,16,16a-hexadecahydrocyclopropa[e]pyrrolo[1,2-a][1,4]diazacyclopentadecin-6-yl)carbamate]	< 5.46 nM	< 5.46 nM
COc1ccc2c(O[C@@H]3C[C@H]4C(=O)N[C@]5(C(=O)NS(=O)(=O)C6CC6)C[C@H]5/C=C\CC[C@@H](C)C[C@@H](C)[C@H](NC(=O)OC5C[C@@H]6C[C@@H]6C5)C(=O)N4C3)nc(-c3ccc(OC(C)C)nc3)cc2c1 (stereo partly drawn) [Compound 5219, (1R,3r,5S)-bicyclo[3.1.0]hexan-3-yl((2R,6S,7R,9R,13aS,14aR,16aS,Z)-14a-((cyclopropylsulfonyl)carbamoyl)-2-((3-(6-isopropoxypyridin-3-yl)-6-methoxyisoquinolin-1-yl)oxy)-7,9-dimethyl-5,16-dioxo-1,2,3,5,6,7,8,9,10,11,13a,14,14a,15,16,16a-hexadecahydrocyclopropa[e]pyrrolo[1,2-a][1,4]diazacyclopentadecin-6-yl)carbamate]	< 5.46 nM	< 5.46 nM
